# The source made the active and inactive calls. No cut-off for these calls is given here.
# Tests used:
# [1] = target: Stromelysin-1 (Homo sapiens) (UniProt P08254); experiment: Inhibition of human MMP3 using Mca-Pro-Leu-Gly-Leu-Dpa-Ala-Arg-NH2 as substrate by spectrophotometry
# [2] = target: T1, Macrophage metalloelastase (Homo sapiens, UniProt P39900); experiment: Inhibition of human MMP12 catalytic domain (98 to 266) at pH 6 to 7 by isothermal titration calorimetry
# Target sequence in this assay (P39900 106-470 limits assumed): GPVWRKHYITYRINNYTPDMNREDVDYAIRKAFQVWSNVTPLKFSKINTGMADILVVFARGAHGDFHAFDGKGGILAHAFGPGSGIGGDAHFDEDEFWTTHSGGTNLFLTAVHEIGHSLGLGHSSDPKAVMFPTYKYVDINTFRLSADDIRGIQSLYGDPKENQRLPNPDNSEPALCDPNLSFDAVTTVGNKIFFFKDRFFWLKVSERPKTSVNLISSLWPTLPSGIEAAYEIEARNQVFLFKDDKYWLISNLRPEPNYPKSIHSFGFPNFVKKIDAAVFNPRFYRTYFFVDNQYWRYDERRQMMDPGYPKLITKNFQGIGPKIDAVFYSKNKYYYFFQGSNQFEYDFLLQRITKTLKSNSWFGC
# [3] = target: Stromelysin-2 (Homo sapiens) (UniProt P09238); experiment: Inhibition of human MMP10 using Mca-Pro-Leu-Gly-Leu-Dpa-Ala-Arg-NH2 as substrate by spectrophotometry
# [4] = target: T1, Macrophage metalloelastase; experiment: Inhibition of human MMP12 catalytic domain (98 to 266) at pH 6.8 by isothermal titration calorimetry
# Target sequence in this assay (P39900 whole entry, the tested form may be a part): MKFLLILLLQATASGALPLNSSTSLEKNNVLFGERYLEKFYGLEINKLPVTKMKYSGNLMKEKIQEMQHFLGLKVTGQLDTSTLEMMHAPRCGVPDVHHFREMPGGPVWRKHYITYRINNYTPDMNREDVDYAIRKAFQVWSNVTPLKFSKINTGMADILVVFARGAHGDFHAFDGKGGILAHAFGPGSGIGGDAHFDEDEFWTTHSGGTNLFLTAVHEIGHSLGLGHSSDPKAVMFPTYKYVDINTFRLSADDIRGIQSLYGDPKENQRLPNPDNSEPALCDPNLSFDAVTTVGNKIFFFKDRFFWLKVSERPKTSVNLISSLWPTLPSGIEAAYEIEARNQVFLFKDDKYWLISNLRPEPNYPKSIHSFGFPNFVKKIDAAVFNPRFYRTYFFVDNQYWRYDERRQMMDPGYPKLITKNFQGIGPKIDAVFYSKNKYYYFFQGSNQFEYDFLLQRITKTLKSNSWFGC
# [5] = target: T1, Macrophage metalloelastase; experiment: Binding affinity to human MMP12 catalytic domain (98 to 266) by isothermal titration calorimetry
# Target sequence in this assay (P39900 whole entry, the tested form may be a part): as above
# [6] = target: Matrix metalloproteinase-9 (Homo sapiens) (UniProt P14780); experiment: Inhibition of human MMP9 using Mca-Pro-Leu-Gly-Leu-Dpa-Ala-Arg-NH2 as substrate by spectrophotometry
# [7] = target: Collagenase 3 (Homo sapiens) (UniProt P45452); experiment: Inhibition of human MMP13 prodomain (20 to 272) using Mca-Pro-Leu-Gly-Leu-Dpa-Ala-Arg-NH2 as substrate by spectrophotometry
# [8] = target: Neutrophil collagenase (Homo sapiens) (UniProt P22894); experiment: Inhibition of human MMP8 catalytic domain (21 to 261) using Mca-Pro-Leu-Gly-Leu-Dpa-Ala-Arg-NH2 as substrate by spectrophotometry
# [9] = target: 72 kDa type IV collagenase (Homo sapiens) (UniProt P08253); experiment: Inhibition of human MMP2 using Mca-Pro-Leu-Gly-Leu-Dpa-Ala-Arg-NH2 as substrate by spectrophotometry
# [10] = target: Matrix metalloproteinase-14 (Homo sapiens) (UniProt P50281); experiment: Inhibition of human MMP14 using Mca-Pro-Leu-Gly-Leu-Dpa-Ala-Arg-NH2 as substrate by spectrophotometry
# Chain of Stromelysin-1 (Homo sapiens) (P08254 100-477 limits assumed): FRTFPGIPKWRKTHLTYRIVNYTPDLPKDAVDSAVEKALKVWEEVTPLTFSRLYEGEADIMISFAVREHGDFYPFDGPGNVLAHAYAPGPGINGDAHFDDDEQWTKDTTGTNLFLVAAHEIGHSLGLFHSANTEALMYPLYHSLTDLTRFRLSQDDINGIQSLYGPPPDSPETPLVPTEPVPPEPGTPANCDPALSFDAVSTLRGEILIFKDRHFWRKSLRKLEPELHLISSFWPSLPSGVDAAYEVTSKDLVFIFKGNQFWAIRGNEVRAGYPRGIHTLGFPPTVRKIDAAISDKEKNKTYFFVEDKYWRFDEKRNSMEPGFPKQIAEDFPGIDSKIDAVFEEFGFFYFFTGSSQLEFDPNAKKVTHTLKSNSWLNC
# Chain of Stromelysin-2 (Homo sapiens) (P09238 99-476 limits assumed): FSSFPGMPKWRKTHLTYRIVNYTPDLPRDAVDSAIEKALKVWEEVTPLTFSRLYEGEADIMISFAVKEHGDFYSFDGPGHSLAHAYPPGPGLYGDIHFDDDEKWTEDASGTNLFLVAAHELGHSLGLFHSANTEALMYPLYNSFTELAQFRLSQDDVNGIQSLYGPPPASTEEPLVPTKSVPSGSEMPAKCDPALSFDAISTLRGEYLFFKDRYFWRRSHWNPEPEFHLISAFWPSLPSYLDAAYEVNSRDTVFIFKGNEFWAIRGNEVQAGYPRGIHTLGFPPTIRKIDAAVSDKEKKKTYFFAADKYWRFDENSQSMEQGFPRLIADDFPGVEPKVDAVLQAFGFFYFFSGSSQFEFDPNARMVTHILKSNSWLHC
# Chain of 72 kDa type IV collagenase (Homo sapiens) (P08253 110-660 limits assumed): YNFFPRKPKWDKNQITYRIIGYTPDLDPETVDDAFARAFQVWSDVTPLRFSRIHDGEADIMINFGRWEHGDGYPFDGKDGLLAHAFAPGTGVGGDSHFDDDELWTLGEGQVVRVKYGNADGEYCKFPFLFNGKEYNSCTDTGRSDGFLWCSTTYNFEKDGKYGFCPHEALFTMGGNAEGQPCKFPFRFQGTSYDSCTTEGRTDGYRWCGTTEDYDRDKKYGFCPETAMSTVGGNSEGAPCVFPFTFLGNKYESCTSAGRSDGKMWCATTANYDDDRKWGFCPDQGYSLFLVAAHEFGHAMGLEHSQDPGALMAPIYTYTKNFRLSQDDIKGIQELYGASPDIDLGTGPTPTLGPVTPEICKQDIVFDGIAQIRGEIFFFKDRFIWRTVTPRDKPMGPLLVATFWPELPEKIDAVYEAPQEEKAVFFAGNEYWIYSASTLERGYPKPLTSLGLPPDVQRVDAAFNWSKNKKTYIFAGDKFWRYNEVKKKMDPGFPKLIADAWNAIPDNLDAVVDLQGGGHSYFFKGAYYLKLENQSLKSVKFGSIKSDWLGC
# Chain of Neutrophil collagenase (Homo sapiens) (P22894 101-467 limits assumed): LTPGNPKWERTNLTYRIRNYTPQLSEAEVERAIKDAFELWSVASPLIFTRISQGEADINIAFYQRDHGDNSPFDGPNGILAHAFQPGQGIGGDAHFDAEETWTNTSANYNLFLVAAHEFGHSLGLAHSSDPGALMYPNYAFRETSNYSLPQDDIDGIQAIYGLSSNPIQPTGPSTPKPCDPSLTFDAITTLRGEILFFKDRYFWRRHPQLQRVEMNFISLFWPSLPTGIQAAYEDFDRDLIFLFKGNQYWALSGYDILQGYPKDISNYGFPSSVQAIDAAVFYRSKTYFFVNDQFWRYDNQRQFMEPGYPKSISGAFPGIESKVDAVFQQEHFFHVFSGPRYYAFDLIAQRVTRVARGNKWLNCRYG
# Chain of Matrix metalloproteinase-9 (Homo sapiens) (P14780 whole entry): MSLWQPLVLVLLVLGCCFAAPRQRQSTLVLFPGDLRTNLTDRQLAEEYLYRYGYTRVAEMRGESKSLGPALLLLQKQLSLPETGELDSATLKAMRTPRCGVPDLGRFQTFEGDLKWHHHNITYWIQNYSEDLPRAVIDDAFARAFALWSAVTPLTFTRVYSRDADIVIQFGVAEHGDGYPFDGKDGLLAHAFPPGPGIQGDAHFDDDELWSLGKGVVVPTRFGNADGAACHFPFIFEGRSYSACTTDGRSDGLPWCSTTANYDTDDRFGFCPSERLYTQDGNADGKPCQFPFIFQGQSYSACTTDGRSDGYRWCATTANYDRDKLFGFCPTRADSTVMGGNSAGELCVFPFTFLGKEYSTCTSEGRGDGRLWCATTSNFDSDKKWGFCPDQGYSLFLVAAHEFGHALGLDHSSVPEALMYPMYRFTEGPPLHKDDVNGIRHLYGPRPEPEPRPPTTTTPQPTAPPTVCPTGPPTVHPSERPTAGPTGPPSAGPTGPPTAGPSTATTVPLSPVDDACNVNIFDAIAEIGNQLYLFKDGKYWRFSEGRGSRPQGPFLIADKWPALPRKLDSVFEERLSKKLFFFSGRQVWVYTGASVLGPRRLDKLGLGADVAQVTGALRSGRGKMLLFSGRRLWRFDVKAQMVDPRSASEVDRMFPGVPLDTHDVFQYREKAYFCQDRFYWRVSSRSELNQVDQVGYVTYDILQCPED
inhibition [1],inhibition [3],inhibition [2],Ki [5] [nM],inhibition [6],inhibition [7],inhibition [8],inhibition [9],inhibition [10],Compound,INH [2] [nM],Ki [4] [nM]
Active,Active,Active,14.7,,,,,,C[C@H](NC(=O)[C@H](C)NC(=O)[C@H](Cc1cc(-c2ccccc2)no1)CP(=O)(O)c1ccc(Br)cc1)C(N)=O,,
inactive,Active,,0.28,Active,inactive,inactive,Active,inactive,C[C@H](NC(=O)[C@H](C)NC(=O)[C@H](Cc1cc(-c2ccc(-c3cccc(Cl)c3)cc2)no1)CP(=O)(O)c1ccc(Br)cc1)C(N)=O,,
Active,Active,,15.5,Active,Active,Active,Active,Active,NC(=O)[C@H](CCC(=O)O)NC(=O)[C@H](CCC(=O)O)NC(=O)[C@H](Cc1cc(-c2ccccc2)no1)CP(=O)(O)c1ccc(Br)cc1,,

Compound,inhibition [1],inhibition [3],inhibition [2],Ki [5] [nM],inhibition [6],inhibition [7],inhibition [8],inhibition [9],inhibition [10],INH [2] [nM],Ki [4] [nM]
NC(=O)[C@H](CCC(=O)O)NC(=O)[C@H](CCC(=O)O)NC(=O)[C@H](Cc1cc(-c2ccc(-c3cccc(Cl)c3)cc2)no1)CP(=O)(O)c1ccc(Br)cc1,Active,Active,,,,,,,,0.044,0.24
